Converted amounts (≈) assume the structure as drawn.
Assays:
KB Cell = KB Cell Culture Screen (NCI Protocol 1.600); type: cell-based
Source text: The chemotherapeutic activities of the fractions obtained in the isolation procedure may be determined by a KB Cell Culture Screen in accordance with the National Cancer Institute Protocol 1.600 [Geran et al., Cancer Chemother.

[1] = tested on: lymphocytic leukemia cells of the strain P388 (PS tumors); assay: Survival of mice implanted with lymphocytic leukemia P388 (NCI Protocol 1.200); details: mouse, in vivo
Procedure: The effectiveness of alkaloid compounds against lymphocytic leukemia cells of the strain P388 (PS tumors) implanted in mice is another method of determining activity. These assays are made according to the National Cancer Institute Protocol 1.200 described in Geran et al. referred to above. […] Starting 24 hr. after the tumor implantation, previously determined dosages of each compound were injected intraperitoneally once a day for 9 days. Survival time of treated leukemic mice is compared to that of untreated leukemic mice (T/C×100). A T/C value of 100% indicated no activity.
^2 All mice were male, CD2 F1.
^3 The injection vehicle was saline.
^4 One intraperitoneal injection per day for 9 days.

For `O=C1NC(=O)[C@@]2(CC[C@@H](O)C2)c2ccncc21` (relative stereo) [sesbanine, trans-3-hydroxyspiro[cyclopentane-1,4'(1'H)[2,7]naphthyridine]-1',3'(2'H)-dione], the IC50 (KB Cell; Homo sapiens, KB, 72 h, 3 days after drug addition, active if ED 50 ≤30 μg./ml., read-out: ED 50 (dose that inhibits growth to 50% of control growth)) was 0.047 µg/mL (≈ 0.202 µM), the “activity of fractions during isolation (in words)” value (KB Cell; among fractions of the respective separation step, Example 1) was “the most active” and the “activity against leukemia in animals (in words)” value [1] was “potent activity against leukemia in animals”.

— patent publication US4200639A, “Sesbanine and the use thereof in treating leukemic tumors” (The United States of America as represented by the …, priority 1979, dated 1980)
